Experimental data reported in US20240425482A1, “PYRROLIDINE DERIVATIVES AS DDRS INHIBITORS” (CHIESI FARMACEUTICI S.P.A., priority 2021, published 2024).
Like-named read-outs stand apart in the source and are kept apart here.

What was measured:
DDR2 = DDR2 (Homo sapiens (Human), UniProt Q16832); experiment: DDR2 LanthaScreen Europium Kinase Binding assay
Protocol: (§1) DDR1 and DDR2 binding assays were performed using Life Technologies LanthaScreen™ Europium Kinase Binding assay. The compounds were incubated with 5 nM DDR1 (Carna Biosciences) or 5 nM DDR2 (Life Technologies) for 1 hour at rt in white 384-well OptiPlate (PerkinElmer), containing 20 nM or 10 nM Kinase Tracer 178 respectively and 2 nM Europium labelled anti-GST antibody (Life Technologies) in assay buffer (50 mM HEPES pH 7.5, 10 mM MgCI2, 1 mM EGTA and 0.01% BRIJ35). The ratio of fluorescence emission 665 nm/615 nm after excitation at 340 nm was obtained using the Tecan Spark 20M plate reader. IC50 values were determined in GraphPad Prism 7.0 software, using 4 parameter model: log(inhibitor) vs. response. IC50 values were converted in Ki using the Cheng-Prusoff equation (Ki=IC50/(1+[Tracer]/Kd).
(§2) Compounds C1 and C2 were tested in the same binding assay described above.

DDR1 = DDR1 (Homo sapiens (Human), UniProt Q08345); experiment: DDR1 LanthaScreen Europium Kinase Binding assay
Chain of DDR1 (Q08345 19-913): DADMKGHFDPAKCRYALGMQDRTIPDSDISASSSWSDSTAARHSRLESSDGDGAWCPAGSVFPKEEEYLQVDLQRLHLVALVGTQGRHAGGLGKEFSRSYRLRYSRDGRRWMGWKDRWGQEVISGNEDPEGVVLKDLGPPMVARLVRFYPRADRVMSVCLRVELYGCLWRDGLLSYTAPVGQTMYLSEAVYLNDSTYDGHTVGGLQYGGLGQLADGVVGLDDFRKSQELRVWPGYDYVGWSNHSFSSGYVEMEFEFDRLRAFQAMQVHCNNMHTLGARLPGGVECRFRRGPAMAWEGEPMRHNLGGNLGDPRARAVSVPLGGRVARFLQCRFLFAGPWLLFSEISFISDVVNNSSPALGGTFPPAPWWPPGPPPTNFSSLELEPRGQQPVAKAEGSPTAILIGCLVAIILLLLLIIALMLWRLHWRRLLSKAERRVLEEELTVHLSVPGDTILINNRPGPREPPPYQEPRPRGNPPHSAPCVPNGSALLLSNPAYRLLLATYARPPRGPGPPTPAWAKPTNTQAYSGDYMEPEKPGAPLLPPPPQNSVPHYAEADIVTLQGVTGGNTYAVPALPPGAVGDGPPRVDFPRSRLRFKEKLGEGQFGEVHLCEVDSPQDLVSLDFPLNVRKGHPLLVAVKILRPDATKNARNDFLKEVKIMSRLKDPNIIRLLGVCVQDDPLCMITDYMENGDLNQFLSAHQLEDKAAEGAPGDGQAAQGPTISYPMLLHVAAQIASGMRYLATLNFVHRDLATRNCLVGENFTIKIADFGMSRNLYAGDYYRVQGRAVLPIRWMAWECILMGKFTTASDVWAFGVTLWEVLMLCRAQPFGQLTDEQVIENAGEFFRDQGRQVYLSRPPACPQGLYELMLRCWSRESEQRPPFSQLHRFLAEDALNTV
Protocol: as §1, §2

[1] = binding, 5 nM DDR2, 10 nM Kinase Tracer 178, 1 hour at rt, Ki from IC50 by Cheng-Prusoff, read-out: Ki DDR2
[2] = binding, 5 nM DDR1, 20 nM Kinase Tracer 178, 1 hour at rt, Ki from IC50 by Cheng-Prusoff, read-out: Ki DDR1

Chain of DDR2 (Q16832 22-855): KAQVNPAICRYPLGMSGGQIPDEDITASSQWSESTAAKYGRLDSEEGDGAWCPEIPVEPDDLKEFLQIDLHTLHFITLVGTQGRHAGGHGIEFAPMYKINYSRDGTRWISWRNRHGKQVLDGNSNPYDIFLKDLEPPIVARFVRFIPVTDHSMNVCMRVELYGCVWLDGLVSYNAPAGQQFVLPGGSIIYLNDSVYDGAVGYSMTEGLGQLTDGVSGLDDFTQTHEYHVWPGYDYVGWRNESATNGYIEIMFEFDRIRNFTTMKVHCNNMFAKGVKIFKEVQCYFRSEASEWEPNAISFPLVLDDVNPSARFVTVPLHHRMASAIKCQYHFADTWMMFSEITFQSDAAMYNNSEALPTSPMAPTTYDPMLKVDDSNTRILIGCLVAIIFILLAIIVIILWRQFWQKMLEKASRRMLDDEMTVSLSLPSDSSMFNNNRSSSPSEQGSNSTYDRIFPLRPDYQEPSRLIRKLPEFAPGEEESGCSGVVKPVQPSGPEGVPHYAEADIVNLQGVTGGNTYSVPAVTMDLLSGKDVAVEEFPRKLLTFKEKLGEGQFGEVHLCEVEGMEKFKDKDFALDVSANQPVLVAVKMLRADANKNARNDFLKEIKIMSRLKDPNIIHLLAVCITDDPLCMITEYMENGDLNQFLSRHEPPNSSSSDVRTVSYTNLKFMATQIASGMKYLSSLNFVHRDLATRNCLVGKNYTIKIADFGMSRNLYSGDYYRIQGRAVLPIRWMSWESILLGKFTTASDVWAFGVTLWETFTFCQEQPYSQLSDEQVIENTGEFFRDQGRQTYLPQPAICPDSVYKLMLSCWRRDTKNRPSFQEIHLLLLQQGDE

| Ki (DDR2; [1]) | Ki (DDR1; [2]) | Structure (SMILES) | Ki (DDR2; DDR2 Ki (nM), same binding assay, numeric values) | Ki (DDR1; same binding assay, numeric values, read-out: DDR1 Ki) |
| --- | --- | --- | --- | --- |
| 25 to 60 nM | < 10 nM | CNC(=O)c1cc(N2CC[C@H](c3cc(C(=O)Nc4cccc(C(F)(F)F)c4)ccc3C)C2)ccn1 [Example 27, (R)-N-methyl-4-(3-(2-methyl-5-((3-(trifluoromethyl)phenyl)carbamoyl)phenyl)pyrrolidin-1-yl)picolinamide] |  |  |
| 10 to 25 nM | < 10 nM | COCCn1cc(Nc2cncc(N3CC[C@@H](c4cc(C(=O)Nc5cccc(C(F)(F)F)c5)ccc4C)C3)c2)cn1 [Example 46, (S)-3-(1-(5-((1-(2-methoxyethyl)-1H-pyrazol-4-yl)amino)pyridin-3-yl)pyrrolidin-3-yl)-4-methyl-N-(3-(trifluoromethyl)phenyl)benzamide] |  |  |
| 25 to 60 nM | 10 to 25 nM | Cc1ccc(C(=O)Nc2cccc(C(F)(F)F)c2)cc1[C@@H]1CCN(c2ccnc3[nH]ccc23)C1 [Example 42, (S)-3-(1-(1H-pyrrolo[2,3-b]pyridin-4-yl)pyrrolidin-3-yl)-4-methyl-N-(3-(trifluoromethyl)phenyl)benzamide] |  |  |
| 25 to 60 nM | < 10 nM | Cc1ccc(C(=O)Nc2cccc(C(F)(F)F)c2)cc1[C@@H]1CCN(c2ccc(N)nc2)C1 [Example 50, (S)-3-(1-(6-aminopyridin-3-yl)pyrrolidin-3-yl)-4-methyl-N-(3-(trifluoromethyl)phenyl)benzamide] |  |  |
| 25 to 60 nM | < 10 nM | CO[C@@H]1CCCN(c2cncc(N3CC[C@@H](c4cc(C(=O)Nc5cccc(C(F)(F)F)c5)ccc4C)C3)c2)C1 [Example 36, 3-((S)-1-(5-((R)-3-methoxypiperidin-1-yl)pyridin-3-yl)pyrrolidin-3-yl)-4-methyl-N-(3-(trifluoromethyl)phenyl)benzamide] |  |  |
| < 10 nM | < 10 nM | Cc1ccc(C(=O)Nc2cc(CN3CCCC3)cc(C(F)(F)F)c2)cc1[C@@H]1CCN(c2cncc(C(N)=O)c2)C1 [Example 57, (S)-5-(3-(2-methyl-5-((3-(pyrrolidin-1-ylmethyl)-5-(trifluoromethyl)phenyl)carbamoyl)phenyl)pyrrolidin-1-yl)nicotinamide] |  |  |
| 10 to 25 nM | < 10 nM | CNC(=O)c1cncc(N2CCC(c3cc(C(=O)Nc4cccc(C(F)(F)F)c4)ccc3C)C2)c1 (centres unmarked) [Example 10, N-methyl-5-(3-(2-methyl-5-((3-(trifluoromethyl)phenyl)carbamoyl)phenyl)pyrrolidin-1-yl)nicotinamide] |  |  |
| < 10 nM | < 10 nM | Cc1ccc(C(=O)Nc2cccc(C(F)(F)F)c2)cc1[C@@H]1CCN(c2cnc(Nc3cnn(C)c3)nc2)C1 [Example 48, (S)-4-methyl-3-(1-(2-((1-methyl-1H-pyrazol-4-yl)amino)pyrimidin-5-yl)pyrrolidin-3-yl)-N-(3-(trifluoromethyl)phenyl)benzamide] |  |  |
| < 10 nM | < 10 nM | Cc1ccc(C(=O)Nc2cccc(C(F)(F)F)c2)cc1C1CCN(c2cncc(C(=O)NCCN(C)C)c2)C1 (centres unmarked) [Example 7, N-(2-(dimethylamino)ethyl)-5-(3-(2-methyl-5-((3-(trifluoromethyl)phenyl)carbamoyl)phenyl)pyrrolidin-1-yl)nicotinamide] |  |  |
| 25 to 60 nM | 10 to 25 nM | Cc1ccc(C(=O)Nc2cccc(C(F)(F)F)c2)cc1[C@H]1CCN(c2cccnc2)C1 [Example 15, (R)-4-methyl-3-(1-(pyridin-3-yl)pyrrolidin-3-yl)-N-(3-(trifluoromethyl)phenyl)benzamide] |  |  |
| < 10 nM | < 10 nM | Cc1ccc(C(=O)Nc2cccc(C(F)(F)F)c2)cc1C1CCN(c2cncc(OCCN3CCN(C)CC3)c2)C1 (centres unmarked) [Example 6, 4-methyl-3-(1-(5-(2-(4-methylpiperazin-1-yl)ethoxy)pyridin-3-yl)pyrrolidin-3-yl)-N-(3-(trifluoromethyl)phenyl)benzamide] |  |  |
| 10 to 25 nM | < 10 nM | Cc1ccc(C(=O)Nc2cccc(C(F)(F)F)c2)cc1C1CCN(c2cncc(N3CCN(C)CC3)c2)C1 (centres unmarked) [Example 12, 4-methyl-3-(1-(5-(4-methylpiperazin-1-yl)pyridin-3-yl)pyrrolidin-3-yl)-N-(3-(trifluoromethyl)phenyl)benzamide] |  |  |
| < 10 nM | < 10 nM | CNC(=O)c1cncc(N2CC[C@@H](c3cc(C(=O)Nc4cccc(C(F)(F)F)c4)ccc3C)C2)c1 [Example 26, (S)-N-methyl-5-(3-(2-methyl-5-((3-(trifluoromethyl)phenyl)carbamoyl)phenyl)pyrrolidin-1-yl)nicotinamide] |  |  |
| < 10 nM | < 10 nM | Cc1ccc(C(=O)Nc2cccc(C(F)(F)F)c2)cc1[C@@H]1CCN(c2cncc(C(N)=O)c2)C1 [Example 19, (S)-5-(3-(2-methyl-5-((3-(trifluoromethyl)phenyl)carbamoyl)phenyl)pyrrolidin-1-yl)nicotinamide] |  |  |
| 25 to 60 nM | < 10 nM | Cc1ccc(C(=O)Nc2cccc(C(F)(F)F)c2)cc1C1CCN(c2cncc(NCCN(C)C)c2)C1 (centres unmarked) [Example 21, 3-(1-(5-((2-(dimethylamino)ethyl)amino)pyridin-3-yl)pyrrolidin-3-yl)-4-methyl-N-(3-(trifluoromethyl)phenyl)benzamide] |  |  |
| < 10 nM | < 10 nM | COCCNC(=O)c1cncc(N2CC[C@@H](c3cc(C(=O)Nc4cccc(C(F)(F)F)c4)ccc3C)C2)c1 [Example 35, (S)-N-(2-methoxyethyl)-5-(3-(2-methyl-5-((3-(trifluoromethyl)phenyl)carbamoyl)phenyl)pyrrolidin-1-yl)nicotinamide] |  |  |
| 10 to 25 nM | < 10 nM | Cc1ccc(C(=O)Nc2cccc(C(F)(F)F)c2)cc1[C@H]1CCN(c2cncc(C(N)=O)c2)C1 [Example 18, (R)-5-(3-(2-methyl-5-((3-(trifluoromethyl)phenyl)carbamoyl)phenyl)pyrrolidin-1-yl)nicotinamide] |  |  |
| < 10 nM | < 10 nM | Cc1ccc(C(=O)Nc2cccc(C(F)(F)F)c2)cc1[C@@H]1CCN(c2cncnc2)C1 [Example 20, (S)-4-methyl-3-(1-(pyrimidin-5-yl)pyrrolidin-3-yl)-N-(3-(trifluoromethyl)phenyl)benzamide] |  |  |
|  |  | Cc1ccc(C(=O)Nc2cccc(C(F)(F)F)c2)cc1C1CN1c1cccnc1 (centres unmarked) [Compound C1, 4-methyl-3-(1-(pyridin-3-yl)aziridin-2-yl)-N-(3-(trifluoromethyl)phenyl)benzamide, reference compound] | 305 nM | 174 nM |
| < 10 nM | < 10 nM | CNC(=O)c1cc(N2CC[C@@H](c3cc(C(=O)Nc4cccc(C(F)(F)F)c4)ccc3C)C2)ccn1 [Example 25, (S)-N-methyl-4-(3-(2-methyl-5-((3-(trifluoromethyl)phenyl)carbamoyl)phenyl)pyrrolidin-1-yl)picolinamide] |  |  |
| 10 to 25 nM | < 10 nM | Cc1ccc(C(=O)Nc2cccc(C(F)(F)F)c2)cc1[C@@H]1CCN(c2cncc(Nc3cnn(C)c3)c2)C1 [Example 45, (S)-4-methyl-3-(1-(5-((1-methyl-1H-pyrazol-4-yl)amino)pyridin-3-yl)pyrrolidin-3-yl)-N-(3-(trifluoromethyl)phenyl)benzamide] |  |  |
| 10 to 25 nM | < 10 nM | Cc1ccc(C(=O)Nc2cccc(C(F)(F)F)c2)cc1C1CCN(c2cncc(CN3CCOCC3)c2)C1 (centres unmarked) [Example 11, 4-methyl-3-(1-(5-(morpholinomethyl)pyridin-3-yl)pyrrolidin-3-yl)-N-(3-(trifluoromethyl)phenyl)benzamide] |  |  |
| 10 to 25 nM | < 10 nM | Cc1ccc(C(=O)Nc2ccc(CN3CCOCC3)c(C(F)(F)F)c2)cc1[C@@H]1CCN(c2cncc(C(N)=O)c2)C1 [Example 56, (S)-5-(3-(2-methyl-5-((4-(morpholinomethyl)-3-(trifluoromethyl)phenyl)carbamoyl)phenyl)pyrrolidin-1-yl)nicotinamide] |  |  |
| 10 to 25 nM | < 10 nM | COCCOc1cncc(N2CC[C@@H](c3cc(C(=O)Nc4cccc(C(F)(F)F)c4)ccc3C)C2)c1 [Example 30, (S)-3-(1-(5-(2-methoxyethoxy)pyridin-3-yl)pyrrolidin-3-yl)-4-methyl-N-(3-(trifluoromethyl)phenyl)benzamide] |  |  |
| 10 to 25 nM | < 10 nM | Cc1ccc(C(=O)Nc2cccc(C(F)(F)F)c2)cc1[C@@H]1CCN(c2cncc(C(F)F)c2)C1 [Example 38, (S)-3-(1-(5-(difluoromethyl)pyridin-3-yl)pyrrolidin-3-yl)-4-methyl-N-(3-(trifluoromethyl)phenyl)benzamide] |  |  |
| 25 to 60 nM | 10 to 25 nM | Cc1ccc(C(=O)Nc2cccc(C(F)(F)F)c2)cc1C1CCN(c2ccnc(C(N)=O)c2)C1 (single isomer, unassigned) [Example 55, 4-(3-(2-methyl-5-((3-(trifluoromethyl)phenyl)carbamoyl)phenyl)pyrrolidin-1-yl)picolinamide] |  |  |
| 25 to 60 nM | 10 to 25 nM | Cc1ccc(C(=O)Nc2cccc(C(F)(F)F)c2)cc1C1CCN(c2cncc(C#N)c2)C1 (centres unmarked) [Example 4, 3-(1-(5-cyanopyridin-3-yl)pyrrolidin-3-yl)-4-methyl-N-(3-(trifluoromethyl)phenyl)benzamide] |  |  |
| 25 to 60 nM | 10 to 25 nM | COCCn1cc(Nc2ccc(N3CC[C@@H](c4cc(C(=O)Nc5cccc(C(F)(F)F)c5)ccc4C)C3)cn2)cn1 [Example 47, (S)-3-(1-(6-((1-(2-methoxyethyl)-1H-pyrazol-4-yl)amino)pyridin-3-yl)pyrrolidin-3-yl)-4-methyl-N-(3-(trifluoromethyl)phenyl)benzamide] |  |  |
